# Key:
# [1] = test system: medial aspect of a human forearm exposed to tobacco smoke or exhaust gas; experiment: Testing of suppression of a reduction in the corneum moisture content; type: in vivo; conditions: 1.0 wt % aqueous solution applied on human forearm; exposure 10 minutes a day for three months; Corneometer
# Method: The floating fine particles exposure apparatus shown in FIG. 1 was used to expose a testee's skin to tobacco (with […] of tar and 2.4 mg of nicotine) smoke or exhaust gas fine particles sampled from an exhaust outlet of an automobile for 10 minutes per day for three months consecutively by bringing the medial aspect of the testee's forearm near the discharge port 14 of the floating fine particles of this exposure apparatus 10 (Exposure apparatus 10 uses a three-mouthed flask 11. That is, one of the mouths of the three-mouthed flask is used as an air inlet 12, another is used as an inlet 13 for floating fine particles such as tobacco smoke, and the third mouth is used as a discharge port 14. Floating fine particles such as tobacco smoke flow in through inlet 13 of the floating fine particles and an air flow which flows in through air inlet 12 is used to discharge them through open discharge port 14 of the floating fine particles. An object which is brought close to this discharge port 14 can be exposed to the floating fine particles such as tobacco smoke. Changes in the corneum moisture content after consecutive exposure to tobacco smoke or exhaust gas fine particles for the aforementioned three months were analyzed by using a Corneometer™ (Courage and Khazaka, Germany). The corneum moisture content is one of the indicators of skin conditions and is known to be an indicator which allows determination of the amount of moisture in the corneum. That is, in the case of rough skin, the corneum moisture content is smaller. A higher value of the corneum moisture content indicates better skin conditions. […] For each of these, the blank value of the corneum moisture content was measured. For the controls, “the group with no drug applied” and “the non-exposure group”, which was not exposed to tobacco smoke or exhaust gas, were used. Using the tobacco smoke exposure apparatus shown in the aforementioned FIG. 1, the medial aspect of the human forearm onto which the aforementioned ingredients had been applied was exposed to tobacco smoke or exhaust gas for 10 minutes a day for three months and the corneum moisture content of that area was investigated.
# [2] = test system: medial aspect of a human forearm exposed to tobacco smoke; experiment: Testing of suppression of oxidation (ultraweak chemiluminescence of the skin); type: in vivo; conditions: 1.0 wt % solution applied on human forearm; tobacco smoke 90 seconds; measured for 30 minutes from 60 seconds after exposure
# Description: It is known that a phenomenon called “ultraweak chemiluminescence: CL” occurs on the skin of a living body including a human. This ultraweak chemiluminescence is known to occur in the radiation deactivation process of electrons from the excited state to the ground state.
# For example, radicals such as singlet oxygen, excited carbonic acid, excited carbonyl, etc. are known to be this luminescent substance in a living body. Therefore, if this ultraweak chemiluminescence can be monitored, it is possible to adequately identify the oxidation reactions occurring on the human skin.
# An 1.0 wt % aqueous solution of each of 1) thiotaurine (from Sogo Pharmaceutical Co., Ltd.), 2) hypotaurine (from Sogo Pharmaceutical Co., Ltd.), 3) glutathione, 4) tannin and 5) vitamin C derivative [L-ascorbic acid phosphate (magnesium)] was applied on the medial aspect of a human forearm. For each of these, a chemiluminescence detector (model OX-7 from Tohoku Electronic Industries Co., Ltd.) whose sample chamber had been modified for a human arm was used to carry out a 30 minute measurement to obtain the blank value of the ultraweak chemiluminescence for each of them. For the control, a solution of 1.0 wt % α-tocopherol was used.
# In the same manner as in the aforementioned environmental stress suppression testing which used the corneum moisture content of the skin as the indicator, the medial aspect of a human forearm was brought close to the floating fine particles exposure apparatus shown in FIG. 1 to expose the medial aspect of the forearm, onto which the aforementioned ingredient(s) had been applied, to tobacco smoke for 90 seconds. Sixty seconds after exposure, the ultraweak chemiluminescence of the exposed part was measured for 30 minutes in the same manner as described above. […]
Structure (SMILES),suppression of the aggravation of skin conditions (reduction in the corneum moisture content) due to exposure to tobacco smoke or exhaust gas [1],reduction of the ultraweak chemiluminescence (oxidation reactions) on the skin [2]
NCCS(=O)O [hypotaurine],effectively prevented,–
"Cc1c(C)c2c(c(C)c1O)CC[C@@](C)(CCC[C@H](C)CCC[C@H](C)CCCC(C)C)O2 [α-tocopherol, reference compound]",could only minimally suppress,could not effectively suppress
NCCS(=O)(O)=S [thiotaurine],effectively prevented,particularly significant
N[C@@H](CCC(=O)N[C@@H](CS)C(=O)NCC(=O)O)C(=O)O [glutathione],effectively prevented,particularly significant
"CC1=C(/C=C/C(C)=C/C=C/C(C)=C/C=C/C=C(C)/C=C/C=C(C)/C=C/C2=C(C)CCCC2(C)C)C(C)(C)CCC1 [β-carotene, reference compound]",could only minimally suppress,–

# Reference: patent publication US20030176358A1, “METHOD OF TREATING ENVIRONMENTAL STRESS” (priority 1997, published 2003)
